Source: the NIST ThermoML archive (doi:10.1016/j.jct.2018.01.003)
Numbers after ± are expanded uncertainties.

Conditions: 101.33 kPa, Liquid, Vibrating tube method

CCCCCCCCCCCCCC[P+](CCCCCC)(CCCCCC)CCCCCC.N#CC(=C=[N-])C#N [trihexyltetradecylphosphonium tricyanomethanide]
Conditions	mass density [kg/m3]
298.15 K	900.77 ± 3.7
308.15 K	894.91 ± 3.7
318.15 K	889.05 ± 3.7
328.15 K	883.23 ± 3.7
338.15 K	877.43 ± 3.7
348.15 K	871.66 ± 3.7
358.15 K	865.92 ± 3.6
368.15 K	860.2 ± 3.6
